Data published in EP0838465A1, “Pyridinium-substituted (lactamylvinyl)cephalosporin derivatives, their preparation and their use as antibiotics” (F. HOFFMANN-LA ROCHE AG, priority 1996, dated 1998).
In brackets after ≈: the same amount, converted by molar mass.

Key:
MRSA (n=17) = test: In vitro activity, MIC90 by agar dilution method in Mueller Hinton agar; assay type: cell-based, S. aureus; conditions: Staphylococcus aureus, agar dilution method on Mueller-Hinton agar, inoculum 10^5 CFU/spot
Experimental: (§1) In vitro activity was determined by minimum inhibitory concentration in a microorganism spectum by the agar dilution method in Mueller Hinton agar.
(§2) The antibacterial Spectrum appears below: • MIC : Minimum Inhibiting Concentration Values

S.aureus 6538 (MSSA) = test: In vitro activity, minimum inhibitory concentration by agar dilution method in Mueller Hinton agar; assay type: cell-based; conditions: Staphylococcus aureus, agar dilution method on Mueller-Hinton agar, inoculum 10^4 CFU/spot
Experimental: as §1, §2

S.aureus 42080 (MRSA) = test: as above; assay type: cell-based; conditions: Staphylococcus aureus, agar dilution method on Mueller-Hinton agar, inoculum 10^4 CFU/spot
Experimental: as §1, §2

Structure (SMILES) | MIC90 (MRSA (n=17)) [µg/mL] | MIC (S.aureus 6538 (MSSA)) [µg/mL] | MIC (S.aureus 42080 (MRSA)) [µg/mL]
Nc1nc(/C(=N/O)C(=O)N[C@@H]2C(=O)N3C(C(=O)[O-])=C(/C=C4\CCN(Cc5cc[n+](CC(=O)Nc6ccc(O)cc6)cc5)C4=O)CS[C@H]23)cs1 [A, (6R,7R)-7-[(Z)-2-(2-Amino-thiazol-4-yl)-2-hydroxyimino-acetylamino]-3-[(E)-1-[1-[(4-hydroxy-phenylcarbamoyl)-methyl]-pyridin-1-ium-4-ylmethyl]-2-oxo-pyrrolidin-3-ylidenemethyl]-8-oxo-5-thia-1-aza-bicyclo[4.2.0]oct-2-ene-2-carboxylate] | 8 (≈ 11.4 µM) | 0.5 (≈ 0.709 µM) | 4 (≈ 5.68 µM)
Nc1nc(/C(=N/O)C(=O)N[C@@H]2C(=O)N3C(C(=O)[O-])=C(/C=C4\CCN(Cc5cc[n+](CC(=O)Nc6ccc(O)cc6)cc5)C4=O)CS[C@H]23)ns1 [B, (6R,7R)-7-[(Z)-2-(5-Amino-[1,2,4]thiadiazol-3-yl)-2-hydroxyimino-acetylamino]-3-[(E)-1-[1-[(4-hydroxy-phenylcarbamoyl)-methyl]-pyridin-1-ium-4-ylmethyl]-2-oxo-pyrrolidin-3-ylidenemethyl]-8-oxo-5-thia-1-aza-bicyclo[4.2.0]-oct-2-ene-2-carboxylate] | 4 (≈ 5.67 µM) | 0.5 (≈ 0.708 µM) | 4 (≈ 5.67 µM)
Nc1nc(/C(=N/O)C(=O)N[C@@H]2C(=O)N3C(C(=O)[O-])=C(/C=C4\CCN(Cc5cc[n+](CC(=O)Nc6ccc(O)c(F)c6)cc5)C4=O)CS[C@H]23)cs1 [C, (6R,7R)-7-[(Z)-2-(2-Amino-thiazol-4-yl)-2-hydroxyimino-acetylamino]-3-[(E)-1-[1-[(3-fluoro-4-hydroxy-phenylcarbamoyl)-methyl]-pyridin-1-ium-4-ylmethyl]-2-oxo-pyrrolidin-3-ylidenemethyl]-8-oxo-5-thia-1-aza-bicyclo[4.2.0]oct-2-ene-2-carboxylate] | 4 (≈ 5.53 µM) | 1 (≈ 1.38 µM) | 4 (≈ 5.53 µM)
Nc1nc(/C(=N/O)C(=O)N[C@@H]2C(=O)N3C(C(=O)[O-])=C(/C=C4\CCN(Cc5cc[n+](CC(=O)Nc6ccc(O)c(F)c6)cc5)C4=O)CS[C@H]23)ns1 [D, (6R,7R)-7-[(Z)-2-(5-Amino-[1,2,4]thiadiazol-3-yl)-2-hydroxyimino-acetylamino]-3-[(E)-1-[1-[(3-fluoro-4-hydroxy-phenylcarbamoyl)-methyl]-pyridin-1-ium-4-ylmethyl]-2-oxo-pyrrolidin-3-ylidenemethyl]-8-oxo-5-thia-1-aza-bicyclo[4.2.0]oct-2-ene-2-carboxylate] | 4 (≈ 5.53 µM) | 1 (≈ 1.38 µM) | 4 (≈ 5.53 µM)
Nc1nc(/C(=N/O)C(=O)N[C@@H]2C(=O)N3C(C(=O)[O-])=C(/C=C4\CCN(Cc5cc[n+](CC(=O)Nc6ccc(O)c(Cl)c6)cc5)C4=O)CS[C@H]23)cs1 [E, (6R,7R)-7-[(Z)-2-(2-Amino-thiazol-4-yl)-2-hydroxyimino-acetylamino]-3-[(E)-1-[1-[(3-chloro-4-hydroxy-phenylcarbamoyl)-methyl]-pyridin-1-ium-4-ylmethyl]-2-oxo-pyrrolidin-3-ylidenemethyl]-8-oxo-5-thia-1-aza-bicyclo[4.2.0]oct-2-ene-2-carboxylate] | 8 (≈ 10.8 µM) | 0.5 (≈ 0.676 µM) | 4 (≈ 5.41 µM)
COc1cc(NC(=O)C[n+]2ccc(CN3CC/C(=C\C4=C(C(=O)[O-])N5C(=O)[C@@H](NC(=O)/C(=N\O)c6csc(N)n6)[C@H]5SC4)C3=O)cc2)ccc1O [F, (6R,7R)-7-[(Z)-2-(2-Amino-thiazol-4-yl)-2-hydroxyimino-acetylamino]-3-[(E)-1-[1-[(4-hydroxy-3-methoxy-phenylcarbamoyl)-methyl]-pyridin-1-ium-4-ylmethyl]-2-oxo-pyrrolidin-3-ylidenemethyl]-8-oxo-5-thia-1-aza-bicyclo[4.2.0]oct-2-ene-2-carboxylate] | 8 (≈ 10.9 µM) | 1 (≈ 1.36 µM) | 8 (≈ 10.9 µM)
Nc1nc(/C(=N/O)C(=O)N[C@@H]2C(=O)N3C(C(=O)[O-])=C(/C=C4\CCN(Cc5ccc[n+](CC(=O)Nc6ccc(O)c(F)c6)c5)C4=O)CS[C@H]23)cs1 [G, (6R,7R)-7-[(Z)-2-(2-Amino-thiazol-4-yl)-2-hydroxyimino-acetylamino]-3-[(E)-1-[1-[(3-fluoro-4-hydroxy-phenylcarbamoyl)-methyl]-pyridin-1-ium-3-ylmethyl]-2-oxo-pyrrolidin-3-ylidenemethyl]-8-oxo-5-thia-1-aza-bicyclo[4.2.0]oct-2-ene-2-carboxylate] | 8 (≈ 11.1 µM) | 0.5 (≈ 0.692 µM) | 4 (≈ 5.53 µM)
